Experimental findings from patent US20220056014A1, “PHENYLPYRROLIDINE COMPOUND AND USE THEREOF” (WUHAN HUMANWELL INNOVATIVE DRUG RESEARCH AND DEVELOPMENT …, priority 2018, published 2022) are described below.

The target in one series is T1, PDE4D (Homo sapiens, UniProt Q08499).
T1 construct: purchased Enzo Life Sciences BML-SE523-0020
In words: PDE4D enzyme activity assay (PDE-Glo Phosphodiesterase Assay Kit). It is filed as biochemical. The gist of the method: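 Recombinant human PDE4B (1 ng/μl working solution) or PDE4D (4 ng/μl working solution) preincubated 5 min at RT with compound, then reacted 20 min with cAMP (2 μM in added solution). PDE-Glo termination/detection and Kinase-Glo steps followed; luminescence read and IC50 fitted.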

For series [1], the system named is LPS-stimulated TNF-α release. In words: LPS-stimulated TNF-α release in mice. It is filed as in vivo, Balb/c mice. Particulars: Mus musculus, oral 50 mg/kg (positive control 100 mg/kg), 1 mg/kg LPS i.p. The method in brief:
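Balb/c mice (6 per group) dosed orally with 50 mg/kg compound, then 1 mg/kg LPS i.p. 30 min later; serum taken 90 or 120 min post-LPS. Serum TNF-α measured by ELISA; inhibition % calculated relative to model and blank (PBS) groups.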

Series [2] can be described thus: Mouse pharmacokinetic test. Format: in vivo, CD-1 mice. Particulars: male, CD-1, plasma, oral gavage 10 mg/kg. Here is the method: (§1) In the rat pharmacokinetic test, 3 male SD rats (180-240 g) were fasted overnight, and orally administered with 10 mg/kg of compound to be tested. Blood was collected before the administration, and 15 min, 30 min, 1 h, 2 h, 4 h, 8 h, and 24 h hours after the administration. The blood sample was centrifuged at 8000 rpm for 6 min at 4° C., and the plasma was collected and stored at −20° C. The plasma collected at each time point was added and mixed with 3-5 times the amount of acetonitrile solution containing an internal standard, vortexed for 1 min, centrifuged at 13,000 rpm for 10 min at 4° C. The supernatant was taken and mixed with 3 times the amount of water, and an appropriate amount of the mixture was taken for LC-MS/MS analysis. The main pharmacokinetic parameters were analyzed with WinNonlin 7.0 software non-compartmental model.
In the mouse pharmacokinetic test, 9 male CD-1 mice (20-25 g) were fasted overnight, and orally administered with 10 mg/kg of the compound to be tested. Bloods of 3 mice were collected at each time point, and bloods of 9 mice were alternately collected in total. In the pharmacokinetic test in canine, 3 male beagle dogs (8-10 kg) were fasted overnight, and orally administered with 5 mg/kg of the compound to be test. In the pharmacokinetic test of cynomolgus monkeys, 3 male cynomolgus monkeys (4 to 6.5 kg) were fasted overnight, and orally administered 20 mg/kg of the compound to be test. The remaining processes are the same as those of the rat pharmacokinetic test.

A short description of the next series: Rat pharmacokinetic test. Format: in vivo, SD rats. Particulars: male, Sprague-Dawley (SD), plasma, oral gavage 10 mg/kg. Here is the method: as §1
Where [3] appears, read: 1.5 h, blood 90 min after LPS, read-out: Inhibition rate (%) of LPS-stimulated TNF-α release, 90 min.
Setting [4] is: 2 h, blood 120 min after LPS, read-out: Inhibition rate (%) of LPS-stimulated TNF-α release, 120 min.

Like-named read-outs stand apart in the source and are kept apart here.

T1 sequence (Q08499 whole entry): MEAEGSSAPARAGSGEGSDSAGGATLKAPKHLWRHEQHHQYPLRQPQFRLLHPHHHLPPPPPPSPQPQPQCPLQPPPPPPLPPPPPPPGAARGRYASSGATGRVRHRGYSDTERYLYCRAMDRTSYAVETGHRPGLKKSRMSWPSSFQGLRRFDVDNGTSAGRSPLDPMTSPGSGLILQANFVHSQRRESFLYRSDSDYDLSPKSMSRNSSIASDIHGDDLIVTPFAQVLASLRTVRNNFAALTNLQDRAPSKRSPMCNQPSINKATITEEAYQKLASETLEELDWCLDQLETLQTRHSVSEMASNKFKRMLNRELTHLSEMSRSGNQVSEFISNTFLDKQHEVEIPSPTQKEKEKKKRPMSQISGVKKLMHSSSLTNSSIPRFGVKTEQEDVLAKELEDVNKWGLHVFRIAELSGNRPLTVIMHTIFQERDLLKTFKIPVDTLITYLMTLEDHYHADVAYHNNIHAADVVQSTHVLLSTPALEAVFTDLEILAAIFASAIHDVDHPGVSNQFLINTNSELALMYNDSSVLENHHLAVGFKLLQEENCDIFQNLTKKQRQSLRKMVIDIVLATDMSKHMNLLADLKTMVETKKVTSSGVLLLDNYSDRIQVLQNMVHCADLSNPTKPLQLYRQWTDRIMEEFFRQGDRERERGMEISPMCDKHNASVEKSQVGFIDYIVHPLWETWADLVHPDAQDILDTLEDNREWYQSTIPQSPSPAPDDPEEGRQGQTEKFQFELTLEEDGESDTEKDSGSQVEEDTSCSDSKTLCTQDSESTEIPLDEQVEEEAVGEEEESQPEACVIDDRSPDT

As for `COc1ccc([C@@H]2CN(C(=O)[C@@H](O)CO)C[C@@]2(C)[C@@H](C)O)cc1OC1CN(c2ncc(C)cc2F)C1` [Compound 004, (S)-1-((3S,4S)-4-(3-((1-(3-fluoro-5-methylpyridin-2-yl)azetidin-3-yl)oxy)-4-methoxyphenyl)-3-((R)-1-hydroxyethyl)-3-methylpyrrolidin-1-yl)-2,3-dihydroxypropan-1-one], inhibition against PDE4D was half-maximal at 1.12 nM (IC50). The inhibition in vivo at 50 mg/kg in series [1] (setting [3]) is 39.6%. Moreover, the inhibition in vivo at 50 mg/kg in series [1] (setting [4]) turned out to be 58.6%. In series [2], the AUC(0-t) (in general, exposure summed from dosing to a finite time, without extrapolation to infinity) was found to be 896 ng·h/mL; the highest level (Cmax) was 378 ng/mL; the Tmax (as a rule, the time from dosing to the highest level) turned out to be 30 min. Moreover, in “Rat pharmacokinetic test”, the AUC(0-t) was 2480 ng·h/mL, the highest level (Cmax) was 823 ng/mL and the Tmax came to 25.2 min.
Take `COc1ccc([C@@H]2CN(C(=O)[C@@H](O)CO)C[C@@]2(C)[C@@H](C)O)cc1OC1CN(c2ccc(C)c(C)n2)C1` [Compound 007, (S)-1-((3S,4S)-4-(3-((1-(5,6-dimethylpyridin-2-yl)azetidin-3-yl)oxy)-4-methoxyphenyl)-3-((R)-1-hydroxyethyl)-3-methylpyrrolidin-1-yl)-2,3-dihydroxypropan-1-one]: the IC50 (commonly the concentration at which inhibition is half-maximal) at PDE4D was 3.94 nM. Further, the inhibition in vivo at 50 mg/kg in series [1] (setting [3]) stood at 52.1%; in series [1] (setting [4]), 66.4%. The AUC(0-t) turned out to be 332 ng·h/mL in series [2] and 1530 ng·h/mL in the series “Rat pharmacokinetic test”. Further, the Cmax (in general, the highest concentration seen after dosing) amounted to 125 ng/mL in series [2] and 735 ng/mL in “Rat pharmacokinetic test”. The Tmax (in series [2]; in the series “Rat pharmacokinetic test”) was 30 min in each case.
For the molecule `COc1ccc([C@@H]2CN(C(=O)[C@@H](O)CO)C[C@@]2(C)[C@@H](C)O)cc1OC1CN(c2ccc(Cl)c(C)n2)C1` [Compound 011, (S)-1-((3S,4S)-4-(3-((1-(5-chloro-6-methylpyridin-2-yl)azetidin-3-yl)oxy)-4-methoxyphenyl)-3-((R)-1-hydroxyethyl)-3-methylpyrrolidin-1-yl)-2,3-dihydroxypropan-1-one], half-maximal inhibition on PDE4D (IC50) required 1.07 nM. Also, the inhibition in vivo at 50 mg/kg in series [1] (setting [3]) amounted to 47.4%; in series [1] (setting [4]), 63.3%. Also, the AUC(0-t) in series [2] amounted to 1050 ng·h/mL; in the series “Rat pharmacokinetic test”, 294 ng·h/mL. For the same molecule, the Cmax in series [2] is 316 ng/mL; in the series “Rat pharmacokinetic test”, 126 ng/mL. For the same molecule, the Tmax in series [2] stood at 30 min; in the series “Rat pharmacokinetic test”, 25.2 min.
On PDE4D, `COc1ccc([C@@H]2CN(C(=O)[C@@H](O)CO)C[C@@]2(C)[C@@H](C)O)cc1OC1CN(c2ccc(C)cn2)C1` [Positive control compound, reference compound] displayed an IC50 of 0.41 nM. Further, the inhibition in vivo at 50 mg/kg in series [1] (setting [3]) is 44.4%; in series [1] (setting [4]), 49%. Moreover, the figures for the AUC(0-t) (in series [2]; in “Rat pharmacokinetic test”) were 237 ng·h/mL and 190 ng·h/mL, respectively. Also, the Cmax turned out to be 142 ng/mL in series [2] and 68.2 ng/mL in the series “Rat pharmacokinetic test”. In addition, the time to peak (Tmax) in series [2] is 15 min; in the series “Rat pharmacokinetic test”, 30 min.
